{"source": "patent US20230201290A1", "about": "“TGF-BETA INHIBITION, AGENTS AND COMPOSITION THEREFOR” (GMP BIOTECHNOLOGY LIMITED, priority 2020, published 2023)", "key": {"[1]": {"tested_on": "colorectal cancer", "assay": "Phase I/II study P001: patients with colorectal cancer", "type": "in vivo, human", "settings": "all colorectal patients independent of dose and schedule", "from_the_text": "(§1) P001 is a completed Phase I/II dose escalation study. Primary objective is the determination of the MTD as well as the DLT of 2 cycles as core treatment and up to 8 optional extension cycles of trabedersen administered i.v. for 4 or 7 d every other week, as described in the following. The study followed a classical cohort design with 3 evaluable patients per cohort. Patients treated with the 1st schedule received trabedersen continuously for 7 d, followed by a treatment-free interval of 7 d for each treatment cycle (7-d-on, 7-d-off). After the MTD had been reached for this schedule, a 2nd schedule of 4 d trabedersen administration, followed by a treatment-free interval of 10 d for each treatment cycle was started (4-d-on, 10-d-off). In this treatment schedule the MTD has not been reached.\nTrabedersen was administered as i.v. continuous infusion for 4 or 7 days every other week via an implanted subcutaneous port system connected to a portable pump and with a flow rate of 0.8 mL/h. […]\n(§2) The overall survival is calculated for all patients as the survival time from the onset of treatment with study medication to death due to any cause and analyzed with the Kaplan-Meier method.\nOne patient with AJCC Stage IV colorectal cancer treated in the 240 mg/m^2/day cohort of the 7-day-on, 7-day-off schedule was assessed with stable disease and survived for 7.3 months. […]"}, "[2]": {"tested_on": "solid tumors", "assay": "Phase I/II study P001, i.v. trabedersen: all patients, MTD and DLT", "type": "in vivo, human", "from_the_text": "as §1\nPrimary objective of the study is the determination of the maximum tolerated dose (MTD) as well as the dose limiting toxicity (DLT) of two cycles of Trabedersen administered every other week. Secondary objectives include safety and tolerability, pharmacokinetic profile and potential antitumor activity of intravenous Trabedersen treatment.\nTrabedersen was administered as i.v. continuous infusion for 4 or 7 days every other week via an implanted subcutaneous port system connected to a portable pump and with a flow rate of 0.8 mL/h. The core treatment consisted of 2 treatment cycles. Up to 8 optional extension cycles were administered in case of clinical benefit.\nThe dose escalation followed a classical cohort design with at least 3 and up to 6 patients per cohort receiving Trabedersen. The starting dose was chosen based on the Lowest-Observed-Adverse-Effect Level (LOAEL) determined in monkeys as the most relevant species. […] The Data and Safety Monitoring Board (DSMB) regularly reviewed available safety and efficacy data before each escalation step. Generally, if patients of one cohort had tolerated the therapy, the next cohort received the next higher dose. Toxicity was assessed based on National Cancer Institute-Common Toxicity Criteria (NCI-CTC, version 2). A DLT was defined as an at least possibly related, medically important adverse event, of NCI-CTC grade 3 or 4, a worsening by ≥2 grades from baseline for renal or hepatic toxicities, a worsening by ≥3 grades from baseline for other laboratory parameters, or other toxicities considered dose-limiting by the investigator. If more than 2 patients of a cohort had DLTs, the next lower dose was defined as MTD. Dose-escalation had to be stopped if MTD was reached.\nas §2\nAltogether 33 patients with advanced pancreatic cancer, malignant melanoma, or colorectal cancer were enrolled for dose escalation (Table 15). Patients treated in the first treatment schedule received Trabedersen continuously for 7 days, followed by a treatment-free interval of 7 days for each treatment cycle (7-days-on, 7-days-off).\nAfter the MTD had been reached in the 7-days-on, 7-days-off schedule, a second dose escalation was started using a modified treatment schedule with 4 days Trabedersen administration, followed by a treatment-free interval of 10 days for each treatment cycle (4-days-on, 10-days-off)."}, "[3]": {"settings": "4-days-on, 10-days-off, 140 mg/m^2/day"}}}
{"substance": "cggcatgtct attttgta (antisense CGGCATGTCTATTTTGTA; chemistry not given here) [OT-101, synthetic antisense oligodeoxynucleotide against TGF-beta2]", "values": [{"measurement": "mOS", "setting": "[1]", "result": 3.0, "unit": "months"}, {"measurement": "Dose limiting toxicities (NCI-CTC grade)", "setting": "[2]; [3]", "result": "— 1 gastrointestinal bleeding (3)"}, {"measurement": "Median Overall Survival, All patients", "setting": "[2]; [3]", "result": 14.5, "unit": "months"}, {"measurement": "Median Overall Survival, All patients", "setting": "[2]; 4-days-on, 10-days-off, 140 mg/m^2/day (additional patients)", "result": "6.0^2 months"}, {"measurement": "Median Overall Survival, All patients", "setting": "[2]; 4-days-on, 10-days-off, 190 mg/m^2/day", "result": 9.3, "unit": "months"}, {"measurement": "Median Overall Survival, All patients", "setting": "[2]; 4-days-on, 10-days-off, 250 mg/m^2/day", "result": 9.8, "unit": "months"}, {"measurement": "Median Overall Survival, All patients", "setting": "[2]; 4-days-on, 10-days-off, 330 mg/m^2/day", "result": 3.0, "unit": "months"}, {"measurement": "MTD", "setting": "[2]; 4-days-on, 10-days-off, 140 to 330 mg/m^2/day", "result": "without reaching an MTD"}, {"measurement": "MTD", "setting": "[2]; 7-days-on, 7-days-off schedule", "result": 160, "unit": "mg/m^2/day"}, {"measurement": "Median Overall Survival, All patients", "setting": "[2]; 7-days-on, 7-days-off, 40 mg/m^2/day", "result": 6.9, "unit": "months"}, {"measurement": "Median Overall Survival, All patients", "setting": "[2]; 7-days-on, 7-days-off, 80 mg/m^2/day", "result": 9.2, "unit": "months"}, {"measurement": "Median Overall Survival, All patients", "setting": "[2]; 7-days-on, 7-days-off, 160 mg/m^2/day", "result": 2.9, "unit": "months"}, {"measurement": "Median Overall Survival, All patients", "setting": "[2]; 7-days-on, 7-days-off, 240 mg/m^2/day", "result": 6.5, "unit": "months"}, {"measurement": "Dose limiting toxicities (NCI-CTC grade)", "setting": "[2]; 7-days-on, 7-days-off, 240 mg/m^2/day, listed as Trabedersen", "result": "2 thrombocytopenias, 1 exanthema and — 1 exanthema (3) and — 2 thrombocytopenias (3)"}]}
